Data on nine molecules can be found in US20220280508A1 (priority 2019, published 2022).

Entries after “also recorded” stand apart in the source; their conditions may differ. Marks after values point to notes of the source that are not given here. Bounds are passed on as bounds.

The subject of assay [1] is iNOS. The format is cell-based, Mouse.
Assay [2] has as its system Pseudomonas aeruginosa. The format is in vivo, BAL B/C male mice. To be noted: 14 days.
For assay [3], the system named is Mycoplasma pneumoniae (ATCCFH15531). The class given is in vivo, BALB/C mice.
Assay [4] concerns influenza. To be noted: human, in vivo.
The subject of assay [5] is PR8 influenza virus. To be noted: mouse, in vivo.
The test system of assay [6] is Macrophage RAW264.7.
In assay [7] the test system is TNF-α, IL-1α, IL-6.
The test system of assay [8] is Staphylococcus aureus. The class given is in vivo, ICR mice. To be noted: n = 10.
The test system of assay [9] is Streptococcus pneumoniae. The format is in vivo, ICR mice. To be noted: n = 10.
For assay [10], the system named is HSV-1. The format is in vivo, Kunming mice. To be noted: n 15.

On to `N[C@@H](CCC(=O)N[C@@H](CS)C(=O)NCC(=O)O)C(=O)O` [glutathione, reference compound], for which the “expression of iNOS in macrophages induced by LPS” value (from here on “expression of iNOS”) in assay [1] was “did not affect expression of iNOS; also recorded: almost no effect”.

Regarding `C[C@@H](O)[C@H]1C(=O)N2C(C(=O)O)=C(S[C@@H]3CN[C@H](C(=O)N(C)C)C3)[C@H](C)[C@H]12` [meropenem], the “survival of mice infected with the fatal dose of Pseudomonas aeruginosa” value in [2] was 100%.

Turning to `NC(=O)c1ccc[n+]([C@@H]2O[C@H](COP(=O)([O-])O)[C@@H](O)[C@H]2O)c1` [NMN, nicotinamide mononucleotide], the “expression of iNOS” value in [1] is “did not affect expression of iNOS; also recorded: almost no effect”.

As for penicillin, the “survival of mice infected with the fatal dose of Pseudomonas aeruginosa” value in assay [2] is “all the mice in the penicillin group died”.

On to `CC[C@H]1OC(=O)[C@H](C)[C@@H](O[C@H]2C[C@@](C)(OC)[C@@H](O)[C@H](C)O2)[C@H](C)[C@@H](O[C@@H]2O[C@H](C)C[C@H](N(C)C)[C@H]2O)[C@](C)(O)C[C@@H](C)CN(C)[C@H](C)[C@@H](O)[C@]1(C)O` [azithromycin], for which the “Histopathological examination of the lung tissue” value in [3] (10 days) is “Mild interstitial pneumonia”. In addition, in [3] (mouse, in vivo), the Splenic index amounted to 4.515 ± 0.982 mg/g and the Thymic index is reported as 3.818 ± 1.232 mg/g.

Consider `O=C1O[C@H]([C@@H](O)CO)C(=O)C1=O` [dehydroascorbic acid], for which the “expression of iNOS” value in [1] is “almost no effect”.

On to 6S-5-methyltetrahydrofolate calcium, for which the “expression of iNOS” value in assay [1] is on record as “did not affect expression of iNOS; also recorded: almost no effect”. In assay [4], the “Mean disappearance time: Cough” value amounted to 35.7 h; the “Mean disappearance time: Dizziness and fullness in head” value turned out to be 28.5 h; the “Mean disappearance time: Dry and itchy throat” value amounted to 15.0 h; the “Mean disappearance time: Fatigue” value was found to be 14.1 h. In addition, in assay [4], the “Mean disappearance time: Headache” value came to 13.7 h; the “Mean disappearance time: Inappetence” value is 13.0 h; the “Mean disappearance time: Intolerance of cold and cold limbs” value was found to be 10.0 h; the “Mean disappearance time: Low fever” value is 10.0 h. Moreover, in assay [4], the “Mean disappearance time: Muscular soreness” value stood at 14.9 h, the “Mean disappearance time: Nasal stuffiness” value stood at 23.0 h, the “Mean disappearance time: Running nose” value is 20.6 h and the “Mean disappearance time: Sneezing” value was 18.1 h. In addition, in assay [4], the “Mean disappearance time: Sore throat” value amounted to 29.4 h; the “Mean time: Basic rehabilitation” value was found to be 27.4 h; the “Mean time: Complete rehabilitation” value worked out at 32.9 h; the “disappearance time of symptoms: Dry and itchy throat” value is 15 h. For the same molecule, in assay [4], the “disappearance time of symptoms: Inappetence” value was determined as 13 h; the “disappearance time of symptoms: Intolerance of cold and cold limbs” value was determined as 10 h; the “disappearance time of symptoms: Low fever” value came out at 10 h; the “time in which the patients' influenza almost all healed” value is at most 2 days. The “condition of the administration group (body weight, body temperature, food intake, water intake, survival curves)” value in assay [5] was “greatly improved”. Further, the “secretion of NO in macrophages” value in [6] was “promote the secretion of NO”. Moreover, the “expression of macrophages and inflammatory factors induced by LPS” value in assay [7] is “no significant effect”.

Regarding `CC1(C)S[C@@H]2[C@H](NC(=O)[C@H](N)c3ccc(O)cc3)C(=O)N2[C@H]1C(=O)O` [Amoxicillin, amoxicillin], the “Survival rate, Staphylococcus aureus” value in [8] is recorded as 70** %. Moreover, the “Survival rate, Streptococcus pneumoniae” value in assay [9] is given as 50* %.

`Nc1nc2c(ncn2COCCO)c(=O)[nH]1` [Acyclovir, acyclovir]: in assay [10], the Mortality was 60%; the “Number of deaths, 48 h” value is 0; the “Number of deaths, D4” value is 4; the “Number of deaths, D7” value was determined as 5.
